Experimental data reported in publication PMC8482815, “Targeting Host Glycolysis as a Strategy for Antimalarial Development” (Frontiers in Cellular and Infection Microbiology, 2021).
“And” between values parts separate entries of the source, which are not always exact repeats. Identical values can stand only once.

Test system: human erythrocytes
Assay: Untargeted metabolomics and 13C-glucose tracing of enolase inhibitor treated erythrocytes
Assay type: cell-based
Conditions: 0.5h
Protocol: Freshly collected erythrocytes were washed, resuspended to 10% hematocrit in buffer [25mM HEPES (pH 7.4), 120mM NaCl, 5.4mM KCl, 1.8mM CaCl2, and 1mM NaH2PO4], incubated for 1 hour at 37°C, then centrifuged at 2000xg for 5 minutes at 4°C, resuspended in fresh wash buffer to 30-40% hematocrit, and split into 210µL aliquots of packed erythrocytes. […] All samples were incubated at 37°C shaking at 500 RPM. Triplicate samples of supernatants and packed erythrocytes were collected at 0, 0.5, 1, and 6-hour intervals and snap-frozen in liquid N2.
RBC and media samples were extracted at 1:10 and 1:20 dilutions, respectively, in 5:3:2 MeOH : MeCN:H2O v/v/v, and supernatants analyzed on a Thermo Vanquish UHPLC coupled to a Thermo Q Exactive mass spectrometer, as extensively described ([Nemkov et al., 2015]; [Nemkov et al., 2017]). The extraction buffer was supplemented with 40uM 3-^13C lactate to allow absolute quantification of lactate isotopologues, including lactate generated via glycolysis ([1,2,3-^13C3] enriched) vs. the pentose phosphate pathway ([2,3-^13C2] enriched), as described ([Reisz et al., 2016]). Metabolite assignments, peak area integration and isotopologues distributions were determined using Maven (Princeton University) ([Nemkov et al., 2015]; [Nemkov et al., 2017]).
Data were auto-scaled and normalized to zero-hour time points. Metabolites were removed from the dataset if greater than 50% of the samples contained missing values or the relative standard deviation among replicates exceeded 25%. Additionally, data was filtered using the interquartile range to reduce near-constant values from the experiment by 5%.
A principal component analysis of preprocessed data was plotted with the 95% confidence interval minimum volume enclosing ellipsoid for each respective group (MetaboAnalyst, cluster, plotly). A two-way repeated measures analysis of variance (ANOVA) was performed with multiple comparisons corrected for using a false discovery rate p-value cutoff of 0.05. Metabolite-Pathway analysis was performed using the R package of MetaboAnalyst, as previously described ([Xia and Wishart, 2010]). Metabolite-Protein nodal analysis was performed using omicsnet.ca and as previously described ([Zhou and Xia, 2018]).

[1] = treated erythrocytes, one value per replicate sample, polarity +
[2] = treated erythrocytes, one value per replicate sample, polarity -
[3] = treated erythrocytes, replicate samples

## CC(C)(C)C(=O)OCOP(=O)(OCOC(=O)C(C)(C)C)C1CCCN(O)C1=O (stereo not shown) [POMHEX]
Replicate samples
  AMP level (metabolomics signal): 2.04E+06 and 4.36E+06 and 1.74E+06
  ATP level (metabolomics signal): 4.24E+03 and 2.55E+03 and 4.82E+03
  Adenine level (metabolomics signal): 1.54E+05 and 1.61E+05 and 1.63E+05
  Cytosine level (metabolomics signal): 6.37E+05 and 5.53E+05 and 6.73E+05
  L-alanine level (metabolomics signal): 1.10E+07 and 9.02E+06 and 1.16E+07
  L-arginine level (metabolomics signal): 8.79E+06 and 1.37E+07 and 1.09E+07
  L-asparagine level (metabolomics signal): 5.66E+06 and 6.04E+06 and 5.52E+06
  L-aspartate level (metabolomics signal): 5.07E+07 and 4.67E+07 and 4.55E+07
  L-cysteine level (metabolomics signal): 3.90E+05 and 9.84E+05 and 3.84E+05
  L-glutamate level (metabolomics signal): 3.66E+07 and 3.55E+07 (2×)
  L-glutamine level (metabolomics signal): 6.00E+07 and 6.77E+07 and 7.03E+07
  L-histidine level (metabolomics signal): 1.31E+06 and 1.35E+06 and 1.30E+06
  L-isoleucine level (metabolomics signal): 1.70E+07 and 1.55E+07 and 1.61E+07
  L-leucine level (metabolomics signal): 2.16E+08 and 2.81E+08 and 2.05E+08
  L-lysine level (metabolomics signal): 2.55E+06 and 2.50E+06 and 1.99E+06
  L-methionine level (metabolomics signal): 1.95E+07 and 2.57E+07 and 1.85E+07
  L-phenylalanine level (metabolomics signal): 1.37E+07 and 1.80E+07 and 1.25E+07
  L-proline level (metabolomics signal): 4.87E+07 and 5.22E+07 and 3.89E+07
  L-serine level (metabolomics signal): 4.56E+06 and 4.84E+06 and 4.45E+06
  L-threonine level (metabolomics signal): 6.27E+06 and 7.92E+06 and 7.08E+06
  L-tryptophan level (metabolomics signal): 5.02E+06 and 4.78E+06 and 4.62E+06
  L-tyrosine level (metabolomics signal): 2.37E+07 (2×) and 3.01E+07
  L-valine level (metabolomics signal): 1.71E+08 and 1.67E+08 and 1.60E+08
  dCMP level (metabolomics signal): 2.34E+04 and 2.37E+04 and 1.78E+04
  dTMP level (metabolomics signal): 9.79E+05 and 1.15E+06 and 1.17E+06
  glycine level (metabolomics signal): 2.21E+06 and 2.32E+06 and 2.35E+06
[1]
  N-Acyl-D-aspartate (C06380) metabolite signal: 2.31E+05 and 2.56E+05 and 2.58E+05
  Poly-gamma-D-glutamate (C05723) metabolite signal: 3.95E+07 and 4.61E+07 and 4.86E+07
[2]
  D-Ribitol 5-phosphate (C01068) metabolite signal: 2.02E+04 and 2.67E+04 and 2.32E+04
  D-glucono-1,5-lactone (C00198) metabolite signal: 5.42E+05 and 4.39E+05 and 4.31E+05
  L-Noradrenaline (C00547) metabolite signal: 7.51E+04 and 1.32E+05 and 6.59E+04
  Oxalosuccinate (C05379) metabolite signal: 1.39E+05 and 1.40E+05 and 1.27E+05
  Pyridoxamine (C00534) metabolite signal: 3.25E+04 and 2.97E+04 and 2.95E+04
  Thioredoxin disulfide (C00343) metabolite signal: 5.85E+04 and 1.53E+04 and 4.46E+04
[3]
  1-4-beta-D-Xylan (metabolite signal): 2.40E+05 and 2.75E+05 and 1.64E+05
  2-Hydroxyglutarate/Citramalate (C02630) metabolite signal: 1.06E+05 and 6.70E+04 and 9.81E+04
  5-6-Dihydrothymine (C00906) metabolite signal: 3.14E+05 and 2.95E+05 and 2.82E+05
  5-10-Methenyltetrahydrofolate (metabolite signal): 3.07E+05 and 3.19E+05 and 3.47E+05
  5-Hydroxyisourate (C11821) metabolite signal: 6.72E+06 and 4.60E+06 and 5.11E+06
  5-L-Glutamyl-taurine (metabolite signal): 1.65E+05 and 1.74E+05 and 8.68E+04
  5-Oxoproline (metabolite signal): 1.01E+06 and 8.27E+05 and 8.80E+05
  (S)(+)-Allantoin (C02350) metabolite signal: 2.15E+04 and 0.00E+00 and 2.93E+04
  Allantoate (C00499) metabolite signal: 2.52E+05 and 3.85E+05 and 2.39E+05
  Ascorbate (metabolite signal): 9.38E+04 and 1.10E+05 and 1.13E+05
  CMP-N-acetylneuraminate (metabolite signal): 2.14E+04 and 1.46E+04 and 2.19E+04
  Carnosine (metabolite signal): 2.66E+05 and 1.54E+05 and 2.52E+05
  Citrate (C00158) metabolite signal: 4.21E+04 and 3.38E+04 and 3.43E+04
  Creatine (metabolite signal): 3.82E+08 and 3.13E+08 and 3.15E+08
  Creatinine (metabolite signal): 3.99E+06 and 3.09E+06 and 3.73E+06
  Cys-Gly (metabolite signal): 2.17E+06 and 2.13E+06 and 1.97E+06
  D-Glucosamine (metabolite signal): 2.57E+05 and 3.05E+05 and 2.16E+05
  D-Glucose (C00031) metabolite signal: 6.04E+06 and 6.91E+06 and 5.92E+06
  D-Ribose (C00121) metabolite signal: 1.90E+05 and 1.42E+05 and 1.71E+05
  Dehydroascorbate (metabolite signal): 1.55E+04 and 2.20E+04 and 1.72E+04
  Dihydrofolate (metabolite signal): 1.72E+06 and 1.97E+06 and 2.05E+06
  Dimethylglycine (metabolite signal): 1.06E+06 and 1.08E+06 and 9.75E+05
  Diphosphate (C00013) metabolite signal: 3.53E+03 and 8.59E+03 and 2.40E+03
  Fumarate (C00122) metabolite signal: 1.24E+05 and 9.52E+04 and 1.10E+05
  Glutathione (C00051) metabolite signal: 1.46E+08 and 1.38E+08 and 1.22E+08
  Glutathione disulfide (metabolite signal): 2.34E+05 and 1.46E+05 and 2.55E+05
  Hypoxanthine (C00262) metabolite signal: 4.07E+04 and 4.68E+04 and 4.37E+04
  IMP (C00130) metabolite signal: 0.00E+00 and 1.71E+05 and 8.01E+04
  Inosine (C00294) metabolite signal: 1.09E+05 and 6.95E+04 and 7.35E+04
  L-Citrulline (metabolite signal): 4.16E+06 and 4.12E+06 and 4.14E+06
  L-Homoserine (metabolite signal): 1.91E+05 and 2.39E+05 and 1.86E+05
  Lactate (C01432) metabolite signal: 8.53E+06 and 7.59E+06 and 8.32E+06
  Malate (C00149) metabolite signal: 2.09E+05 and 1.30E+05 and 1.62E+05
  Mannitol (C00392) metabolite signal: 1.34E+05 and 1.15E+05 and 1.42E+05
  N-Acetylneuraminate (metabolite signal): 3.02E+04 and 1.89E+04 and 1.91E+04
  N-Glycoloyl-neuraminate (metabolite signal): 1.66E+05 and 1.75E+05 and 1.62E+05
  NAD+ (C00003) metabolite signal: 5.24E+05 and 2.47E+05 and 4.46E+05
  Nicotinamide (C00153) metabolite signal: 3.74E+07 and 4.23E+07 and 3.90E+07
  Ornithine (metabolite signal): 2.17E+06 and 2.00E+06 and 1.65E+06
  Oxaloacetate (C00036) metabolite signal: 3.93E+04 and 5.60E+04 and 5.05E+04
  Phosphoserine (metabolite signal): 5.17E+04 and 3.63E+04 and 3.54E+04
  Putrescine (metabolite signal): 7.82E+04 and 7.87E+04 and 8.82E+04
  Pyridoxal (C00250) metabolite signal: 7.34E+04 and 7.61E+04 and 7.64E+04
  Pyruvate (C00022) metabolite signal: 5.86E+05 and 6.64E+05 and 6.39E+05
  S-Glutathionyl-L-cysteine (metabolite signal): 1.61E+05 and 1.05E+05 and 1.77E+05
  Sedoheptulose 1-phosphate (C06222) metabolite signal: 1.57E+04 and 1.33E+04 and 1.23E+04
  Spermidine (metabolite signal): 1.10E+07 and 8.21E+06 and 9.51E+06
  Spermine (metabolite signal): 1.10E+07 and 9.13E+06 and 8.60E+06
  Succinate (C00042) metabolite signal: 7.14E+04 and 9.44E+04 and 6.66E+04
  Thymidine (C00214) metabolite signal: 1.01E+04 and 1.94E+04 and 1.37E+04
  UDP (C00015) metabolite signal: 1.69E+05 and 2.66E+05 and 2.03E+05
  UDP-N-acetyl-D-glucosamine (metabolite signal): 1.85E+04 (2×) and 1.14E+04
  UDP-glucose (C00029) metabolite signal: 3.86E+04 and 2.14E+04 and 2.96E+04
  Urate (C00366) metabolite signal: 3.40E+04 and 3.79E+04 and 3.24E+04
  Xanthine (C00385) metabolite signal: 3.40E+05 and 3.32E+05 and 3.09E+05
  alpha-D-Glucosamine 1-phosphate (metabolite signal): 2.32E+06 and 1.61E+06 and 1.74E+06
  alpha-D-Ribose 1-phosphate (C00620) metabolite signal: 1.49E+05 and 1.17E+05 and 8.56E+04
  gamma-Glutamyl-gamma-aminobutyrate (metabolite signal): 9.84E+04 and 1.13E+05 and 1.05E+05
  gamma-L-Glutamyl-D-alanine (metabolite signal): 3.61E+04 and 2.95E+04 and 2.86E+04
  gamma-L-Glutamyl-L-cysteine (metabolite signal): 2.26E+04 and 4.82E+04 and 4.78E+04
